Results published in US9399626B2, “2-thiopyrimidinones” (Pfizer Inc., priority 2011, dated 2016).
Where a name gives a salt, the structure may show the parent alone.

target: T1, MPO (purified from human polynuclear leukocytes) (Homo sapiens, UniProt P05164); assay: MPO Amplex Red Activity Assay; format: biochemical; conditions: Table 1, 2 μM H2O2, pH 7.4
T1 construct: purified from human polynuclear leukocytes; purchased Calbiochem/EMD Biosciences; host or cells: human polynuclear leukocytes (natural source)
T1 sequence (P05164 279-745 limits assumed): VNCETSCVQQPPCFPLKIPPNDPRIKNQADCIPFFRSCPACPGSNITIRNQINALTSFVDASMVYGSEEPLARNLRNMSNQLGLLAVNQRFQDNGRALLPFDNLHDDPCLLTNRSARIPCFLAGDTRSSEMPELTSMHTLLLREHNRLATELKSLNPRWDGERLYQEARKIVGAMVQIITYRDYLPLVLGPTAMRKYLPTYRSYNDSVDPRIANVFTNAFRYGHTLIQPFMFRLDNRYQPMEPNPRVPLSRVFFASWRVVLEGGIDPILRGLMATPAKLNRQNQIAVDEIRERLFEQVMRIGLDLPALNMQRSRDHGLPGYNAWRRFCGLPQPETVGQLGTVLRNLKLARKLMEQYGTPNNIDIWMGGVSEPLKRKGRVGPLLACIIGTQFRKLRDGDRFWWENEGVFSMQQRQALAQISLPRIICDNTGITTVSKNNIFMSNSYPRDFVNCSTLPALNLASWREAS
T1 sequence (P05164 165-273 limits assumed): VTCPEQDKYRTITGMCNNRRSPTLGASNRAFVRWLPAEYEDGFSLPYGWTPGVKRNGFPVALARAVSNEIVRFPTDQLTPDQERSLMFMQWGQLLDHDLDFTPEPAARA
Procedure, shortened: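 Human leukocyte MPO […] oxidises 30 μM Amplex Red with 2 μM H2O2 in 50 mM NaPi pH 7.4, 150 mM NaCl, 1 mM DTPA, 2% DMSO. Resorufin fluorescence (ex 530/em 580 nm) read every 20 s, minus catalase background. kobs from the first 600 s, corrected for auto-inactivation, fit versus [I] for kinact/KI.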

Structure (SMILES) | MPO kinact/Ki
COCCn1c(-c2ccc(OC)cc2)cc(=O)[nH]c1=S [Example 294, 1-(2-methoxyethyl)-6-(4-methoxyphenyl)-2-thioxo-2,3-dihydropyrimidin-4(1H)-one] | 1910 1/s per M
COc1ccc(-c2cc(=O)[nH]c(=S)n2CCC(C)(C)N)c(OC)c1 [Example 219, 1-(3-amino-3-methylbutyl)-6-(2,4-dimethoxyphenyl)-2-thioxo-2,3-dihydropyrimidin-4(1H)-one hydrochloride] | 1970 1/s per M
CCOC(=O)Cn1c(-c2cc(OC)c(OC)cc2OC)cc(=O)[nH]c1=S [Example 139, ethyl[4-oxo-2-thioxo-6-(2,4,5-trimethoxyphenyl)-3,4-dihydropyrimidin-1(2H)-yl]acetate] | 2890 1/s per M
COc1cccc(OC)c1-c1cc(=O)[nH]c(=S)n1CCO [Example 167, 6-(2,6-dimethoxyphenyl)-1-(2-hydroxyethyl)-2-thioxo-2,3-dihydropyrimidin-4(1H)-one] | 20300 1/s per M
COc1cc(OC)c(-c2cc(=O)[nH]c(=S)n2CC(N)=O)cc1C [Example 146, 2-[6-(2,4-dimethoxy-5-methylphenyl)-4-oxo-2-thioxo-3,4-dihydropyrimidin-1(2H)-yl]acetamide] | 8950 1/s per M
COc1ccc(-c2cc(=O)[nH]c(=S)n2C[C@H](C)N)c(OC)c1 [Example 176, 1-[(2S)-2-aminopropyl]-6-(2,4-dimethoxyphenyl)-2-thioxo-2,3-dihydropyrimidin-4(1H)-one hydrochloride] | 2160 1/s per M
COc1ccccc1-c1cc(=O)[nH]c(=S)n1CCN [Example 11, 1-(2-aminoethyl)-6-(2-methoxyphenyl)-2-thioxo-2,3-dihydropyrimidin-4(1H)-one hydrochloride] | 6880 1/s per M
COCCn1c(-c2ccccc2OC(F)(F)F)cc(=O)[nH]c1=S [Example 118, 1-(2-methoxyethyl)-2-thioxo-6-[2-(trifluoromethoxy)phenyl]-2,3-dihydropyrimidin-4(1H)-one] | 5500 1/s per M
COc1ccc(-c2cc(=O)[nH]c(=S)n2CCNCC(N)=O)c(OC)c1 [Example 242, N~2~-{2-[6-(2,4-dimethoxyphenyl)-4-oxo-2-thioxo-3,4-dihydropyrimidin-1(2H)-yl]ethyl}glycinamide] | 142 1/s per M
COc1ccc(-c2cc(=O)[nH]c(=S)n2CCCN)c(Cl)c1 [Example 91, 1-(3-aminopropyl)-6-(2-chloro-4-methoxyphenyl)-2-thioxo-2,3-dihydropyrimidin-4(1H)-one hydrochloride] | 9360 1/s per M
COc1ccc(Cl)cc1-c1cc(=O)[nH]c(=S)n1CCN=C(N)N [Example 128, 2-{2-[6-(5-chloro-2-methoxyphenyl)-4-oxo-2-thioxo-3,4-dihydropyrimidin-1(2H)-yl]ethyl} guanidine hydrochloride] | 7680 1/s per M
COc1cc(OC)cc(-c2cc(=O)[nH]c(=S)n2CCO)c1 [Example 54, 6-(3,5-dimethoxyphenyl)-1-(2-hydroxyethyl)-2-thioxo-2,3-dihydropyrimidin-4(1H)-one] | 7070 1/s per M
COc1ccc(-c2cc(=O)[nH]c(=S)n2CCCN)c(OC)c1 [Example 178, 1-(3-aminopropyl)-6-(2,4-dimethoxyphenyl)-2-thioxo-2,3-dihydropyrimidin-4(1H)-one formate] | 11100 1/s per M
COCCn1c(-c2csc3ccccc23)cc(=O)[nH]c1=S [Example 324, 6-(1-benzothien-3-yl)-1-(2-methoxyethyl)-2-thioxo-2,3-dihydropyrimidin-4(1H)-one] | 11300 1/s per M
COc1ccc(-c2cc(=O)[nH]c(=S)n2CCOC(=O)CN)c(OC)c1 [Example 244, 2-[6-(2,4-dimethoxyphenyl)-4-oxo-2-thioxo-3,4-dihydropyrimidin-1(2H)-yl]ethyl glycinate tosylate] | 8970 1/s per M
NCCn1c(-c2cccc3[nH]ccc23)cc(=O)[nH]c1=S [Example 142, 1-(2-aminoethyl)-6-(1H-indol-4-yl)-2-thioxo-2,3-dihydropyrimidin-4(1H)-one trifluoroacetate] | 4210 1/s per M
COCCn1c(-c2ccnc(OC)c2)cc(=O)[nH]c1=S [Example 297, 1-(2-methoxyethyl)-6-(2-methoxypyridin-4-yl)-2-thioxo-2,3-dihydropyrimidin-4(1H)-one] | 762 1/s per M
COc1cc(OC)c(-c2cc(=O)[nH]c(=S)n2CC(N)=O)cc1OC [Example 124, 2-[4-oxo-2-thioxo-6-(2,4,5-trimethoxyphenyl)-3,4-dihydropyrimidin-1(2H)-yl]acetamide] | 4610 1/s per M
CNC(=O)Cn1c(-c2ccc(OC)cc2OC)cc(=O)[nH]c1=S [Example 190, 2-[6-(2,4-dimethoxyphenyl)-4-oxo-2-thioxo-3,4-dihydropyrimidin-1(2H)-yl]-N-methylacetamide] | 4090 1/s per M
COCCn1c(-c2ccc3ccccc3c2OC)cc(=O)[nH]c1=S [Example 115, 1-(2-methoxyethyl)-6-(1-methoxy-2-naphthyl)-2-thioxo-2,3-dihydropyrimidin-4(1H)-one] | 4380 1/s per M
COc1ccc(F)cc1-c1cc(=O)[nH]c(=S)n1CCNC(=O)CN [Example 127, N-{2-[6-(5-fluoro-2-methoxyphenyl)-4-oxo-2-thioxo-3,4-dihydropyrimidin-1(2H)-yl]ethyl} glycinamide hydrochloride] | 5810 1/s per M
COCCn1c(-c2ccc(C)cc2)cc(=O)[nH]c1=S [Example 285, 1-(2-methoxyethyl)-6-(4-methylphenyl)-2-thioxo-2,3-dihydropyrimidin-4(1H)-one] | 1750 1/s per M
COCCn1c(-c2nc(C)ccc2OC)cc(=O)[nH]c1=S [Example 49, 1-(2-methoxyethyl)-6-(3-methoxy-6-methylpyridin-2-yl)-2-thioxo-2,3-dihydropyrimidin-4(1H)-one] | 2230 1/s per M
COc1ccc(-c2cc(=O)[nH]c(=S)n2CCOC(C)=O)c(OC)c1 [Example 222, 2-[6-(2,4-dimethoxyphenyl)-4-oxo-2-thioxo-3,4-dihydropyrimidin-1(2H)-yl]ethyl acetate] | 9820 1/s per M
NCCCn1c(-c2cccc3ccoc23)cc(=O)[nH]c1=S [Example 34, 1-(3-aminopropyl)-6-(1-benzofuran-7-yl)-2-thioxo-2,3-dihydropyrimidin-4(1H)-one hydrochloride] | 13100 1/s per M
COc1ccccc1-c1cc(=O)[nH]c(=S)n1CCOC(C)C [Example 173, 1-(2-isopropoxyethyl)-6-(2-methoxyphenyl)-2-thioxo-2,3-dihydropyrimidin-4(1H)-one] | 2910 1/s per M

same assay, conditions: Table 1A, 2 μM H2O2, pH 7.4

Structure (SMILES) | MPO kinact/Ki
COc1ccc(-c2cc(=O)[nH]c(=S)n2CCO)c(OCCO)c1 [Example 409, 6-[2-(2-hydroxyethoxy)-4-methoxyphenyl]-1-(2-hydroxyethyl)-2-thioxo-2,3-dihydropyrimidin-4(1H)-one] | 18000 1/s per M
NC(=O)Cn1c(-c2ccc(F)cc2OCCO)cc(=O)[nH]c1=S [Example 414, 2-{6-[4-fluoro-2-(2-hydroxyethoxy)phenyl]-4-oxo-2-thioxo-3,4-dihydropyrimidin-1(2H)-yl}acetamide] | 1680 1/s per M
COc1ccc(-c2cc(=O)[nH]c(=S)n2CC(=O)N[C@@H](C)CN)c(OC)c1 [Example 394, N-[(2S)-1-aminopropan-2-yl]-2-[6-(2,4-dimethoxyphenyl)-4-oxo-2-thioxo-3,4-dihydropyrimidin-1(2H)-yl]acetamide] | 4020 1/s per M
COc1ccc(-c2cc(=O)[nH]c(=S)n2CC(=O)NC(C)(C)CN)c(OC)c1 [Example 432, N-(1-amino-2-methylpropan-2-yl)-2-[6-(2,4-dimethoxyphenyl)-4-oxo-2-thioxo-3,4-dihydropyrimidin-1(2H)-yl]acetamide] | 1410 1/s per M
COc1ccc(-c2cc(=O)[nH]c(=S)n2CCNCCN)c(OC)c1 [Example 381, 1-{2-[(2-aminoethyl)amino]ethyl}-6-(2,4-dimethoxyphenyl)-2-thioxo-2,3-dihydropyrimidin-4(1H)-one] | 1970 1/s per M
O=c1cc(-c2ccccc2O)n(CCO)c(=S)[nH]1 [Example 366, 1-(2-hydroxyethyl)-6-(2-hydroxyphenyl)-2-thioxo-2,3-dihydropyrimidin-4(1H)-one] | 13600 1/s per M
COc1ccc(-c2cc(=O)[nH]c(=S)n2CC(=O)NC[C@H](C)N)c(OC)c1 [Example 396, N-[(2S)-2-aminopropyl]-2-[6-(2,4-dimethoxyphenyl)-4-oxo-2-thioxo-3,4-dihydropyrimidin-1(2H)-yl]acetamide] | 10900 1/s per M
COCCNC(=O)Cn1c(-c2ccc(OC)cc2OC)cc(=O)[nH]c1=S [Example 436, 2-[6-(2,4-dimethoxyphenyl)-4-oxo-2-thioxo-3,4-dihydropyrimidin-1(2H)-yl]-N-(2-methoxyethyl)acetamide] | 3710 1/s per M
COc1ccc(-c2cc(=O)[nH]c(=S)n2CCN)cc1OC [Example 360, 1-(2-aminoethyl)-6-(3,4-dimethoxyphenyl)-2-thioxo-2,3-dihydropyrimidin-4(1H)-one] | 2280 1/s per M
